The numbers were not newly measured in US7705031B2 (priority 2003, dated 2010), which cites them from elsewhere.

By IC50 is commonly meant the midpoint of a concentration-inhibition curve.

Series [1] addresses NaV1.3 (Homo sapiens, UniProt Q9NY46). The note with it: read-out: TTX IC50.
For series [2], the system named is neuropathic pain. The note with it: human, in vivo.

Sequence of NaV1.3 (Q9NY46 whole entry, looked up): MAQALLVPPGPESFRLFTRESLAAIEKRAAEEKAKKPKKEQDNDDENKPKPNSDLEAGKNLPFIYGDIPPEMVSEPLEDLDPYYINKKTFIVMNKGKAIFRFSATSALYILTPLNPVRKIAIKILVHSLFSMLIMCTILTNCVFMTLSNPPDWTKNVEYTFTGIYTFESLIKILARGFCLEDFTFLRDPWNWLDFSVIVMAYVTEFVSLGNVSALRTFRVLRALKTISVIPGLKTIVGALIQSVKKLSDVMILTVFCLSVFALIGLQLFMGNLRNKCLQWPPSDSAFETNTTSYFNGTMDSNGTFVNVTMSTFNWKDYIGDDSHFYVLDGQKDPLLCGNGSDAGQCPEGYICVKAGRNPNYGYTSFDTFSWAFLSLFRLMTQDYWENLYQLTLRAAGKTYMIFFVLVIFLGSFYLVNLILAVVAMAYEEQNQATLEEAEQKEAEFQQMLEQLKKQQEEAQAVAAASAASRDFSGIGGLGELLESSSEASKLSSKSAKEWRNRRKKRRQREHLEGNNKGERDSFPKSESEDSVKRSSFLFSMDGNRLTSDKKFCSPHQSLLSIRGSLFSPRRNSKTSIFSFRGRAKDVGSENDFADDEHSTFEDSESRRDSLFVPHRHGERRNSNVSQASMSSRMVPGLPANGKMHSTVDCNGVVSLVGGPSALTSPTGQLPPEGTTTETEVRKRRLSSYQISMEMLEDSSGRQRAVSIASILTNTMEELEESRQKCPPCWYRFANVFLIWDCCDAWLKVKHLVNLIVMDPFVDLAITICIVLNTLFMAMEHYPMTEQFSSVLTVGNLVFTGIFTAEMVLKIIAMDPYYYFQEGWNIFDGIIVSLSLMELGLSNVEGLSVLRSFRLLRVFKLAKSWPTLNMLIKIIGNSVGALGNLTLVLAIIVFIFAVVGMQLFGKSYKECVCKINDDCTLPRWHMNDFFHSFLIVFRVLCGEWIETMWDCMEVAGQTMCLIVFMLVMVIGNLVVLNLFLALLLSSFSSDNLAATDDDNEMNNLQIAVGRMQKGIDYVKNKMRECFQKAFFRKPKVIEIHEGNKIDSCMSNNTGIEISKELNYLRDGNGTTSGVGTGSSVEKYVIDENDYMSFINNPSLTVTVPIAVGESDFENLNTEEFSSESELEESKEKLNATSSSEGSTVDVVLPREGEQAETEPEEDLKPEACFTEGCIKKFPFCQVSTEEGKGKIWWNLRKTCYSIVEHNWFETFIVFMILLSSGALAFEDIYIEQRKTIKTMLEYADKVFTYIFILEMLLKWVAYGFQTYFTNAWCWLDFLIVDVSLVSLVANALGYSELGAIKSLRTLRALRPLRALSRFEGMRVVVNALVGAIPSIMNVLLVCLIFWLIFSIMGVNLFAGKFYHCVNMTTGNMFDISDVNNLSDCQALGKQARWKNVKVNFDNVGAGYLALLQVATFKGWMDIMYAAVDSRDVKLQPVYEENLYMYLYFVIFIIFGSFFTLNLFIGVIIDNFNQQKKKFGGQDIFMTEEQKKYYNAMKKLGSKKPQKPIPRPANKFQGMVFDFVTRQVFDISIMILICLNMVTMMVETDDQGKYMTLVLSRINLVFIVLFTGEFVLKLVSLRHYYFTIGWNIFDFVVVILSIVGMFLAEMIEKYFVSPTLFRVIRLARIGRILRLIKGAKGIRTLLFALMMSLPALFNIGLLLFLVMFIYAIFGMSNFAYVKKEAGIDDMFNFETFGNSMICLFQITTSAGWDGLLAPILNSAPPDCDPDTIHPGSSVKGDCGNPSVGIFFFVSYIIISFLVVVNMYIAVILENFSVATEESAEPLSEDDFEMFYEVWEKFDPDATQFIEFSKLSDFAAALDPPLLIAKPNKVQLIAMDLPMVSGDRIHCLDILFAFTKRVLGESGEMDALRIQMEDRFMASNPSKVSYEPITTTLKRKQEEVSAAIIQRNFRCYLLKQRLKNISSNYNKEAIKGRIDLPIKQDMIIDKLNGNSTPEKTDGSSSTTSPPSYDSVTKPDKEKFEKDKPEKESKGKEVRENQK

On to `NC1=N[C@H](O)[C@H]2[C@H]3O[C@]4(O)O[C@@H]([C@@H](O)[C@@]2(N1)[C@@H]4O)[C@]3(O)CO` [TTX, tetrodotoxin], for which, in series [1], the IC50 is 15 nM.
On to `NCC1(CC(=O)O)CCCCC1` [Gabapentin], for which, in series [2], the “share of patients in whom the drug works” value is 60%.
